Measurements from ChEMBL document CHEMBL1795286, “A concise synthesis and antimicrobial activities of 3-polyamino-23,24-bisnorcholanes as steroid-polyamine conjugates” (2011).

Experiments:
Staphylococcus aureus [1] = assay: Antimicrobial activity against Staphylococcus aureus ATCC 6538P after 18 hrs by twofold agar dilution method; type: functional
Staphylococcus aureus [2] = assay: Antimicrobial activity against Staphylococcus aureus ATCC 25923 after 18 hrs by twofold agar dilution method; type: functional; conditions: ATCC 25923, 18 h, read-out: MIC
Staphylococcus aureus [3] = assay: Antimicrobial activity against Staphylococcus aureus giorgio after 18 hrs by twofold agar dilution method; type: functional
Staphylococcus aureus [4] = assay: Antimicrobial activity against Staphylococcus aureus 77 after 18 hrs by twofold agar dilution method; type: functional; conditions: Staphylococcus aureus, 77, 18 h; read-out: MIC
Staphylococcus aureus [5] = assay: Antimicrobial activity against Staphylococcus aureus 241 after 18 hrs by twofold agar dilution method; type: functional; conditions: Staphylococcus aureus, 241, 18 h; read-out: MIC
[6] = test system: Staphylococcus epidermidis; assay: Antimicrobial activity against Staphylococcus epidermidis 887E after 18 hrs by twofold agar dilution method; type: functional; conditions: read-out: MIC
Enterococcus faecalis = assay: Antimicrobial activity against Enterococcus faecalis ATCC 29212 after 18 hrs by twofold agar dilution method; type: functional; conditions: ATCC 29212, 18 h
Escherichia coli [7] = assay: Antimicrobial activity against Escherichia coli ATCC 25922 after 18 hrs by twofold agar dilution method; type: functional; conditions: ATCC 25922, 18 h
Escherichia coli [8] = assay: Antimicrobial activity against Escherichia coli ATCC 10536 after 18 hrs by twofold agar dilution method; type: functional; conditions: ATCC 10536, 18 h
Escherichia coli [9] = assay: Antimicrobial activity against Escherichia coli 3190Y after 18 hrs by twofold agar dilution method; type: functional
Escherichia coli [10] = assay: Antimicrobial activity against Escherichia coli 851E after 18 hrs by twofold agar dilution method; type: functional
Salmonella typhimurium [11] = assay: Antimicrobial activity against Salmonella Typhimurium ATCC 14028 after 18 hrs by two-fold agar dilution method; type: functional, Salmonella enterica subsp. enterica serovar Typhimurium; conditions: Salmonella enterica, ATCC 14028, 18 h
Salmonella typhimurium [12] = assay: Antimicrobial activity against Salmonella typhimurium ATCC 13311 after 18 hrs by twofold agar dilution method; type: functional, Salmonella enterica subsp. enterica serovar Typhimurium; conditions: Salmonella enterica, ATCC 13311, 18 h
Klebsiella pneumoniae = assay: Antimicrobial activity against Klebsiella pneumoniae 2011E after 18 hrs by twofold agar dilution method; type: functional
Moraxella catarrhalis [13] = assay: Antimicrobial activity against Moraxella catarrhalis 25240 after 18 hrs by twofold agar dilution method; type: functional; conditions: Moraxella catarrhalis, 25240, 18 h
Moraxella catarrhalis [14] = assay: Antimicrobial activity against Moraxella catarrhalis C2431 after 18 hrs by twofold agar dilution method; type: functional; conditions: C2431, 18 h
Proteus vulgaris = assay: Antimicrobial activity against Proteus vulgaris 6059 after 18 hrs by twofold agar dilution method; type: functional; conditions: Proteus vulgaris, 6059, 18 h
Morganella morganii = assay: Antimicrobial activity against Morganella morganii 1375E after 18 hrs by twofold agar dilution method; type: functional
Citrobacter freundii = assay: Antimicrobial activity against Citrobacter freundii 8090 after 18 hrs by twofold agar dilution method; type: functional; conditions: Citrobacter freundii, 8090, 18 h
Citrobacter koseri = assay: Antimicrobial activity against Citrobacter diversus 2046 after 18 hrs by twofold agar dilution method; type: functional; conditions: Citrobacter koseri, 2046, 18 h
Enterobacter cloacae [15] = assay: Antimicrobial activity against Enterobacter cloacae ATCC 27508 after 18 hrs by twofold agar dilution method; type: functional; conditions: ATCC 27508, 18 h
Enterobacter cloacae [16] = assay: Antimicrobial activity against Enterobacter cloacae P99 after 18 hrs by twofold agar dilution method; type: functional; conditions: P99, 18 h
Serratia marcescens [17] = assay: Antimicrobial activity against Serratia marcescens ATCC 27117 after 18 hrs by twofold agar dilution method; type: functional; conditions: ATCC 27117, 18 h
Serratia marcescens [18] = assay: Antimicrobial activity against Serratia marcescens 1826E after 18 hrs by twofold agar dilution method; type: functional
[19] = test system: Acinetobacter calcoaceticus; assay: Antimicrobial activity against Acinetobacter calcoaceticus ATCC 15473 after 18 hrs by twofold agar dilution method; type: functional; conditions: ATCC 15473, 18 h
Micrococcus luteus = assay: Antimicrobial activity against Micrococcus luteus ATCC 9341 after 18 hrs by twofold agar dilution method; type: functional; conditions: ATCC 9341, 18 h, read-out: MIC
Bacillus cereus = assay: Antimicrobial activity against Bacillus cereus ATCC 27348 after 18 hrs by twofold agar dilution method; type: functional; conditions: ATCC 27348, 18 h
Bacillus subtilis = assay: Antimicrobial activity against Bacillus subtilis ATCC 6633 after 18 hrs by twofold agar dilution method; type: functional; conditions: ATCC 6633, 18 h
Bacillus licheniformis = assay: Antimicrobial activity against Bacillus licheniformis EMR after 18 hrs by twofold agar dilution method; type: functional; conditions: read-out: MIC
Pseudomonas aeruginosa = assay: Antimicrobial activity against Pseudomonas aeruginosa 6065Y after 18 hrs by twofold agar dilution method; type: functional
Klebsiella aerogenes = assay: Antimicrobial activity against Klebsiella aerogenes harboring beta-lactamase SHV-1 1976E mutant after 18 hrs by twofold agar dilution method; type: functional

Row | SMILES | MIC (Staphylococcus aureus [1]) [µg/mL] | MIC (Staphylococcus aureus [2]) [µg/mL] | MIC (Staphylococcus aureus [3]) [µg/mL] | MIC (Staphylococcus aureus [4]) [µg/mL] | MIC (Staphylococcus aureus [5]) [µg/mL] | MIC [6] [µg/mL] | MIC (Escherichia coli [10]) [µg/mL] | MIC (Salmonella typhimurium [11]) [µg/mL] | MIC (Salmonella typhimurium [12]) [µg/mL] | MIC (Klebsiella pneumoniae) [µg/mL] | MIC (Proteus vulgaris) [µg/mL] | MIC (Morganella morganii) [µg/mL] | MIC (Citrobacter freundii) [µg/mL] | MIC (Citrobacter koseri) [µg/mL] | MIC (Enterobacter cloacae [15]) [µg/mL] | MIC (Enterobacter cloacae [16]) [µg/mL] | MIC (Serratia marcescens [17]) [µg/mL] | MIC (Serratia marcescens [18]) [µg/mL] | MIC [19] [µg/mL] | MIC (Micrococcus luteus) [µg/mL] | also measured
1 | C[C@H](CO)[C@H]1CC[C@H]2[C@@H]3[C@H](O)C[C@H]4C[C@@H](NCCCNCCCCN)CC[C@]4(C)[C@H]3CC[C@]12C.Cl.Cl.Cl | 16 | < 32 | 32 | 16 | 16 | 32 | > 32 | > 32 | > 32 | > 32 | > 32 | > 32 | > 32 | > 32 | > 32 | > 32 | > 32 | > 32 | > 32 | 16 | MIC (Enterococcus faecalis): > 32 µg/mL; MIC (Escherichia coli [7]; read-out: MIC): < 32 µg/mL; MIC (Escherichia coli [8]): > 32 µg/mL; MIC (Escherichia coli [9]; read-out: MIC): < 32 µg/mL; MIC (Moraxella catarrhalis [13]; read-out: MIC): < 32 µg/mL; MIC (Moraxella catarrhalis [14]): > 32 µg/mL; MIC (Bacillus cereus): > 32 µg/mL; MIC (Bacillus subtilis): 16 µg/mL; MIC (Bacillus licheniformis): < 32 µg/mL; MIC (Pseudomonas aeruginosa): > 32 µg/mL; MIC (Klebsiella aerogenes): > 32 µg/mL
2 | C[C@H](CO)[C@H]1CC[C@H]2[C@@H]3[C@H](N)C[C@H]4C[C@@H](NCCCNCCCCN)CC[C@]4(C)[C@H]3CC[C@]12C.Cl.Cl.Cl | 16 | 32 | 32 | 8 | 16 | 32 | > 32 | > 32 | > 32 | > 32 | > 32 | > 32 | > 32 | > 32 | > 32 | > 32 | > 32 | > 32 | > 32 | 16 | MIC (Enterococcus faecalis; read-out: MIC): < 32 µg/mL; MIC (Escherichia coli [7]; read-out: MIC): < 32 µg/mL; MIC (Escherichia coli [8]): > 32 µg/mL; MIC (Escherichia coli [9]): > 32 µg/mL; MIC (Moraxella catarrhalis [13]): > 32 µg/mL; MIC (Moraxella catarrhalis [14]; read-out: MIC): < 32 µg/mL; MIC (Bacillus cereus; read-out: MIC): < 32 µg/mL; MIC (Bacillus subtilis): 16 µg/mL; MIC (Bacillus licheniformis): < 32 µg/mL; MIC (Pseudomonas aeruginosa): > 32 µg/mL; MIC (Klebsiella aerogenes): > 32 µg/mL
3 | C[C@H](CO)[C@H]1CC[C@H]2[C@@H]3CC[C@H]4C[C@H](NCCCNCCCCNCCCN)CC[C@]4(C)[C@H]3CC[C@]12C.Cl.Cl.Cl.Cl | 4 | 16 | 16 | 16 | 4 | 8 | > 32 | > 32 | > 32 | > 32 | > 32 | > 32 | > 32 | > 32 | > 32 | > 32 | > 32 | > 32 | > 32 | 16 | MIC (Enterococcus faecalis; read-out: MIC): < 32 µg/mL; MIC (Escherichia coli [7]): > 32 µg/mL; MIC (Escherichia coli [8]; read-out: MIC): < 32 µg/mL; MIC (Escherichia coli [9]; read-out: MIC): < 32 µg/mL; MIC (Moraxella catarrhalis [13]; read-out: MIC): < 32 µg/mL; MIC (Moraxella catarrhalis [14]; read-out: MIC): < 32 µg/mL; MIC (Bacillus cereus; read-out: MIC): < 32 µg/mL; MIC (Bacillus subtilis): 8 µg/mL; MIC (Bacillus licheniformis): 32 µg/mL; MIC (Pseudomonas aeruginosa): > 32 µg/mL; MIC (Klebsiella aerogenes): > 32 µg/mL
